In patent US20050130947A1, “Formulations for inhalation” (priority 2002, published 2005):

How the values were obtained:
[1] = tested on: ovalbumin sensitised Brown Norway rat eosinophilia model; assay: Ovalbumin sensitised Brown Norway rat eosinophilia model; format: in vivo; conditions: single 30 μg intra-tracheal dose, suspension in saline, 30 min prior to ovalbumin challenge
Method: Pharmacological activity in vivo was assessed in an ovalbumin sensitised Brown Norway rat eosinophilia model. This model is designed to mimic allergen induced lung eosinophilia, a major component of lung inflammation in asthma.

[2] = tested on: rat model of thymus involution; assay: Rat model of thymus involution; format: in vivo; conditions: 3 daily IT doses of 100 μg
[3] = Pharmacokinetics after intravenous and oral dosing in rats; conditions: rat, IV 0.1 mg/kg
[4] = Pharmacokinetics after intra-tracheal dry powder dosing in the pig; format: in vivo; conditions: for AUC (0-inf): compound (I) AUC calculated with IV plasma half-life
Method: Serial blood samples were taken for up to 8 h following dosing.

reduction of thymus weight [2]: 78%
plasma clearance [3]: 45.2 mL/min/kg
Cmax ([4]; Pig 1, 1 mg intra-tracheal dry powder blend in lactose): 0.277 ng/mL
AUC (0-inf) ([4]; Pig 1, 1 mg intra-tracheal dry powder): 0.455 ng·h/mL
Cmax ([4]; Pig 2, 1 mg intra-tracheal dry powder blend in lactose): 0.218 ng/mL
AUC (0-inf) ([4]; Pig 2, 1 mg intra-tracheal dry powder): 0.495 ng·h/mL
time after dosing up to which quantifiable in plasma ([4]; anaesthetised pigs, 1 mg intra-tracheal, LLOQ 10 pg/mL compound (I), 20 pg/mL fluticasone propionate): up to 8 hours
SMILES: CCC(=O)O[C@]1(C(=O)SCF)[C@H](C)C[C@H]2[C@@H]3C[C@H](F)C4=CC(=O)C=C[C@]4(C)[C@@]3(F)[C@@H](O)C[C@@]21C [Fluticasone propionate, 6α, 9α-Difluoro-17α-(1-oxopropoxy)-11β-hydroxy-16α-methyl-3-oxo-androsta-1,4-diene-17β-carbothioic acid S-fluoromethyl ester, reference compound]
inhibition of lung eosinophilia [1]: 41%
